The values below come from patent publication US6696441B1, “Inhibition of p53-induced stress response” (The Regents of the University of California, priority 2000, dated 2004).

Data set [1] deals with mice. Conditions: cited from earlier work.
A short description of data set [2]: nmr time course of PFT-α in DMSO-d6. Conditions: time course in DMSO-d6, proton nmr. Format: physicochemical.
A short description of data set [3]: Cyclization of PFT-α to IBT in DMSO stock diluted with water, reversed phase HPLC at 25° C. over time. Format: physicochemical. Here is the method: (§1) The preparation of PFT-α was accomplished as shown in Scheme 1 by reacting 4-methyl-2-bromoacetophenone with 2-amino-4,5,6,7-tetrahydro-benzothiazole. Upon recrystallization of the PFT-α from isopropyl alcohol, it was noticed that PFT-α readily ring-closed completely to the imidazo[2,1-b]benzothiazole (IBT). Therefore, a subsequent investigation was undertaken to study the propensity of PFT-α to ring-close in protic solvents. […] Thus, PFT-α was dissolved in DMSO and water dilutions were made from this stock.

A short description of data set [4]: Ring closure of PFT-α in protic solvents at room temperature. It counts as physicochemical. Here is the method:
as §1

Data set [5] relates to malignant lymphocytes from two patients with chronic lymphocytic leukemia [CLL]. Kind of data set: Effect on B-CLL viability (PI exclusion by FACS, MTT). As to conditions: 3 days culture; viable cells by PI FACS and MTT; concentrations up to 100 micromolar; FIG. 1. It counts as cell-based, human. An excerpt: (§2) The malignant lymphocytes from two patients with chronic lymphocytic leukemia [CLL] were isolated by ficoll-hypaque sedimentation and suspended at a density of 1 million cells per milliliter in RPMI 1640 medium supplemented with 10% fetal bovine serum. Two hundred microliter aliquots of cells were dispersed in the wells of culture plates containing the indicated final concentrations of either PFT-α (“PFT-open”) or IBT (PFT-closed). After 3 days culture, viable cells were enumerated by fluorescence-activated cell sorting [FACS] after staining with propidium iodide [PI]. Viable cells excluded the dye [open circles]. In addition, cell metabolism was assessed by the ability of the cells to […] the tetrazolium dye MTT [closed squares].
In general terms: A flow cytometer gives signals particle by particle.

Data set [6] concerns Chronic lymphocytic leukemia [CLL] cells. Briefly: Protection against spontaneous apoptosis and apoptosis induced by fludarabine (PI negative and DiOC6 high cells by FACS). As to conditions: one micromolar, 3 days culture, FIG. 2; for effect on untreated CLL cells (spontaneous apoptosis): PI negative and DiOC6 high cells. Format: cell-based, human.
Source text: as §2
Chronic lymphocytic leukemia [CLL] cells were cultured for 3 days as described in Example 2. Some of the cultures were supplemented with one micromolar of PFT-open or PFT-closed, as indicated. In the experiment shown in the bottom panel of FIG. 2, some of the cultures also contained the cytotoxic adenine nucleoside analog fludarabine [abbreviated F-AraA]. Fludarabine is the first line treatment for CLL, and the toxicity of the drug is dependent upon the p53 pathway. To assess healthy, viable cells, staining was done with both PI, as indicated in Example 2, and with the mitochondrial dye DiOC6. Cells that were both PI negative and DIOC6 high were enumerated by FACS.

`Cc1ccc(C(=O)Cn2c3c(sc2=N)CCCC3)cc1` [PFT-α]: in data set [1] (6-8 Gy of gamma radiation), the “protection from lethal genotoxic stress” value was “protected mice from lethal genotoxic stress”. Besides, in data set [1], the “promotion of tumor formation” value is reported as “without itself promoting the formation of tumors”. Also, the “conversion of PFT-α to IBT” value in data set [2] is listed as “spontaneous conversion of PFT-α to IBT”. Also, the “% cyclized to IBT” value was 5% in data set [3] (Time 0 h), 28% in data set [3] (Time 18 h) and 42% in data set [3] (Time 48 h). Further, the “propensity to ring-close in protic solvents” value in data set [4] is on record as “begins cyclizing at room temperature immediately upon dissolution in protic solvents”. For the same compound, the “CLL survival / toxicity” value in data set [5] is “dose-dependently reduced CLL survival”. In addition, in data set [6], the “effect on untreated CLL cells (spontaneous apoptosis)” value is recorded as “nearly equivalent effects”.

As for `Cc1ccc(-c2cn3c4c(sc3n2)CCCC4)cc1` [IBT], the “CLL survival / toxicity” value in data set [5] was “non-toxic”. Also, in data set [6], the “effect on untreated CLL cells (spontaneous apoptosis)” value was “nearly equivalent effects”. For the same compound, the “protective effect on CLL cells treated with F-AraA (fludarabine)” value in data set [6] (with F-AraA, compared with PFT-α) is recorded as “less protective effects”.
